From patent publication US12077503B2, “Substituted cyclic amides and their use as herbicides” (FMC CORPORATION, priority 2015, dated 2024)

Experiments:
Format in all cases: in vivo
[1] = test system: Kochia (Kochia scoparia); experiment: Test A preemergence; conditions: Bassia scoparia, pre-emergence, 240 h, read-out: Plant response rating, Kochia
Procedure, shortened: (§1)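 Preemergence directed soil spray on seeded pots, or postemergence application to plants 2–10 cm, one- to two-leaf. Solvent mixture non-phytotoxic, with surfactant. Scored ~10 d later, visually, 0–100 vs untreated.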

[2] = test system: pigweed (Amaranthus retroflexus); experiment: Test A preemergence; conditions: Amaranthus retroflexus, pre-emergence, 240 h, read-out: Plant response rating, Pigweed
[3] = test system: giant foxtail (Setaria faberii); experiment: Test A preemergence; conditions: Setaria faberi, pre-emergence, 240 h, read-out: Plant response rating, Foxtail, Giant
Procedure, shortened: as §1

[4] = test system: ragweed (common ragweed, Ambrosia elatior); experiment: Test A preemergence; conditions: Ambrosia artemisiifolia, pre-emergence, 240 h, read-out: Plant response rating, Ragweed
Procedure, shortened: as §1

[5] = test system: ryegrass, Italian (Italian ryegrass, Lolium multiflorum); experiment: Test A preemergence; conditions: Lolium multiflorum, pre-emergence, 240 h, read-out: Plant response rating, Ryegrass, Italian
Procedure, shortened: as §1

[6] = test system: barnyardgrass (Echinochloa crus-galli); experiment: Test A preemergence; conditions: Echinochloa crus-galli, pre-emergence, 240 h, read-out: Plant response rating, Barnyardgrass
Procedure, shortened: as §1

[7] = test system: Kochia (Kochia scoparia); experiment: Test A postemergence; conditions: Bassia scoparia, post-emergence, 240 h, read-out: Plant response rating, Kochia
Procedure, shortened: as §1

[8] = test system: pigweed (Amaranthus retroflexus); experiment: Test A postemergence; conditions: Amaranthus retroflexus, post-emergence, 240 h, read-out: Plant response rating, Pigweed
Procedure, shortened: as §1

[9] = test system: giant foxtail (Setaria faberii); experiment: Test A postemergence; conditions: Setaria faberi, post-emergence, 240 h, read-out: Plant response rating, Foxtail, Giant
Procedure, shortened: as §1

[10] = test system: ragweed (common ragweed, Ambrosia elatior); experiment: Test A postemergence; conditions: Ambrosia artemisiifolia, post-emergence, 240 h, read-out: Plant response rating, Ragweed
Procedure, shortened: as §1

[11] = test system: wheat (Triticum aestivum); experiment: Test A postemergence; conditions: Triticum aestivum, post-emergence, 240 h, Postemergence, 31 g ai/ha; visual injury after approx. 10 d; 0 to 100 scale, 0 no effect, 100 complete control; read-out: Plant response rating, Wheat
Procedure, shortened: as §1

[12] = test system: ryegrass, Italian (Italian ryegrass, Lolium multiflorum); experiment: Test A postemergence; conditions: Lolium multiflorum, post-emergence, 240 h, read-out: Plant response rating, Ryegrass, Italian
Procedure, shortened: as §1

[13] = test system: barnyardgrass (Echinochloa crus-galli); experiment: Test A postemergence; conditions: Echinochloa crus-galli, post-emergence, 240 h, read-out: Plant response rating, Barnyardgrass
Procedure, shortened: as §1

[14] = test system: corn (Zea mays); experiment: Test A postemergence; conditions: Zea mays, post-emergence, 240 h
Procedure, shortened: as §1

[15] = test system: Galium (catchweed bedstraw, Galium aparine); experiment: Test A postemergence; conditions: Galium, post-emergence, 240 h, read-out: Plant response rating, Galium
Procedure, shortened: as §1

[16] = 125 g ai/ha, preemergence, visual rating after approx. 10 d, 0 to 100 scale where 0 is no effect and 100 is complete control
[17] = Preemergence, 31 g ai/ha, 0 to 100 scale (0 no effect, 100 complete control)
[18] = 125 g ai/ha, postemergence, visual injury after approximately 10 d, 0 to 100 scale (0 no effect, 100 complete control)
[19] = Postemergence, 31 g ai/ha, visual injury after approx. 10 d, 0 to 100 scale, 0 no effect, 100 complete control

Q: CSc1ccccc1NC(=O)[C@H]1C(=O)N(C)C[C@@H]1c1ccc(C(F)F)cc1 [Compound 799] was tested. Which pest or weed control at 125 g/ha [1, 16] did it give?
A: 40%

Q: And the pest or weed control at 31 g/ha [1, 17]?
A: 0%

Q: And the pest or weed control at 125 g/ha [2, 16]?
A: 40%

Q: And the pest or weed control at 31 g/ha [2, 17]?
A: 30%

Q: What about the pest or weed control at 125 g/ha [3, 16] of the same compound?
A: 90%

Q: And the pest or weed control at 31 g/ha [3, 17]?
A: 70%

Q: And the pest or weed control at 125 g/ha [4, 16]?
A: 0%

Q: What about the pest or weed control at 31 g/ha [4, 17] of the same compound?
A: 0%

Q: And the pest or weed control at 125 g/ha [5, 16]?
A: 0%

Q: And the pest or weed control at 31 g/ha [5, 17]?
A: 0%

Q: What about the pest or weed control at 125 g/ha [6, 16] of the same compound?
A: 40%

Q: What about the pest or weed control at 31 g/ha [6, 17] of the same compound?
A: 0%

Q: And the pest or weed control at 125 g/ha [7, 18]?
A: 30%

Q: What about the pest or weed control at 31 g/ha [7, 19] of the same compound?
A: 0%

Q: What about the pest or weed control at 125 g/ha [8, 18] of the same compound?
A: 20%

Q: What about the pest or weed control at 31 g/ha [8, 19] of the same compound?
A: 0%

Q: And the pest or weed control at 125 g/ha [9, 18]?
A: 80%

Q: And the pest or weed control at 31 g/ha [9, 19]?
A: 40%

Q: What about the pest or weed control at 125 g/ha [10, 18] of the same compound?
A: 0%

Q: And the pest or weed control at 31 g/ha [10, 19]?
A: 0%

Q: What about the plant injury at 31 g/ha [11] of the same compound?
A: 0%

Q: And the pest or weed control at 125 g/ha [12, 18]?
A: 20%

Q: And the pest or weed control at 31 g/ha [12, 19]?
A: 0%

Q: And the pest or weed control at 125 g/ha [13, 18]?
A: 70%

Q: What about the pest or weed control at 31 g/ha [13, 19] of the same compound?
A: 40%

Q: What about the Corn plant response rating (crop injury, 0 = no effect, 100 = complete kill) at 125 g/ha [14, 18] of the same compound?
A: 20%

Q: What about the Corn plant response rating (crop injury, 0 = no effect, 100 = complete kill) at 31 g/ha [14, 19] of the same compound?
A: 0%

Q: What about the pest or weed control at 125 g/ha [15, 18] of the same compound?
A: 50%

Q: What about the pest or weed control at 31 g/ha [15, 19] of the same compound?
A: 0%
